Assay results taken from paper PMC10046377, “Inhibitors of the Oncogenic PA2G4-MYCN Protein-Protein Interface” (Cancers, 2023).

Tested on: normal human myofibroblasts
Experiment: Toxicity for normal human myofibroblasts relative to WS6
Format: cell-based
Protocol: Cell viability was determined by the Alamar Blue assay (75 mg resazurin, 12.5 mg methylene blue, 164.5 mg potassium hexacyanoferrate (III), 211 mg potassium hexacyanoferrate (II) trihydrate in 500 mL of phosphate buffered saline). After 6 h incubation with Alamar Blue, the change of fluorescence was measured by Victor 3 multilabel Plate Reader (Perkin Elmer Australia, Melburne, Australia) at an excitation wavelength of 560 nm and an emission wavelength of 590 nm.
We have shown that the PA2G4 protein increased the half-life of the oncoprotein MYCN through direct binding, and competitive chemical inhibition of this bond by WS6 reduced tumorigenicity both in vitro and in vivo [11]. […] Here, we explored the structure–activity relationship (SAR) of WS6 analogue compounds with the aim to increase efficacy and reduce toxicity. […] The in vitro cytotoxicity of these 14 compounds were measured by cell viability assays using Alamar Blue in MYCN amplified human neuroblastoma (SK-N-BE(2)-C and Kelly) cell lines compared to non-malignant (WI-38, MRC-5) myofibroblast cell lines (Figure 1B,C and Supplementary Figure S1A).

Row | SMILES | fold lower toxicity for normal human myofibroblasts compared to WS6
1 | Cc1cccc(Oc2cc(N3CCC(C(=O)NCc4cccc(Br)c4)CC3)ncn2)c1C [#5333] | 70 fold
2 | Cc1cccc(Oc2cc(N3CCC(C(=O)N[C@@H](C)CCc4ccccc4)CC3)ncn2)c1C [#5338] | 70 fold
